Results on 68 sequences are retold here after the supplement of paper PMC11208160.
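Note: IS621 bridge recombinase in Escherichia coli cells against a fixed T5 target plasmid.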

The nature of the series: recombinant UMI read abundance after kanamycin selection (control-corrected) (log10(CPM+1)); higher = more efficient recombination; extreme values may be limits of the assay; sequences stand for … in AGTGCAGAGAAAATCGGCCAGTTTTCTCTGCCTGCAGTCCGCATGCCGTGGGACCCCTTGGGTTCTAACCTGTTGCCTAGATTTATGCAGCGGACTGCCTTTCTCCCAAAGTGATAAACCGG…AGGTTGGTTTCACT; site = the 11-nt donor. Summed up: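 Sequenced counts of recombinant UMIs were turned into CPM, averaged across replicates and scaled with control-derived factors. The reported figure is log10(CPM+1). Those UMIs, each 12 nt long, tagged donor and donor-binding-loop pairs on a plasmid with a promoterless kanamycin gene, screened as a pool in Escherichia coli with IPTG (0.07 mM) plus kanamycin or without selection.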
“CACGGTCCATGGACCGGTTTTCCCGGTAATCCGTATTTGCA (site CACGGTCCTTG)”: the “recombinant UMI read abundance (log10)” value worked out at 1.74.

In the case of “CACGGTCCATGGACCGGTTTTCCCGGTAATCCGTATTTGCA (site CCCGGTCCTTG)”, the “recombinant UMI read abundance (log10)” value was 0.

For the sequence “CACGGTCCATGGACCGGTTTTCCCGGTAATCCGTATTTGCA (site CGCGGTCCTTG)”, the “recombinant UMI read abundance (log10)” value is 0.

With “CACGGTCCATGGACCGGTTTTCCCGGTAATCCGTATTTGCA (site CTCGGTCCTTG)”, the “recombinant UMI read abundance (log10)” value came to 0.

On to “CACGGTCCATGGACCGGTTTTCCCGGTAATCCGTATTTGTT (site CACGGACCTAA)”, for which the “recombinant UMI read abundance (log10)” value worked out at 0.00385.

Take “CACGGTCCATGGACCGGTTTTCCCGGTAATCCGTATTTGTT (site CACGGCCCTAA)”: the “recombinant UMI read abundance (log10)” value was determined as 0.18.

“CACGGTCCATGGACCGGTTTTCCCGGTAATCCGTATTTGTT (site CACGGGCCTAA)”: the “recombinant UMI read abundance (log10)” value was 0.00486.

Consider “CACGGTCCATGGACCGGTTTTCCCGGTAATCCGTATTTGTT (site CACGGTCCTAA)”, for which the “recombinant UMI read abundance (log10)” value was determined as 1.4.

As for “CACGTACCATGGACCGGTTTTCCCGGTAATCCGTATTTGCT (site CACGTACCTAG)”, the “recombinant UMI read abundance (log10)” value was determined as 0.0043.

Turning to “CACTACTCATGGACCGGTTTTCCCGGTAATCCGTATTTGCC (site CACTACTCTGG)”, the “recombinant UMI read abundance (log10)” value was found to be 2.55.

Consider “CACTACTCATGGACCGGTTTTCCCGGTAATCCGTATTTGCC (site CACTCCTCTGG)”, for which the “recombinant UMI read abundance (log10)” value was 0.801.

Turning to “CACTACTCATGGACCGGTTTTCCCGGTAATCCGTATTTGCC (site CACTGCTCTGG)”, the “recombinant UMI read abundance (log10)” value amounted to 0.737.

As for “CACTACTCATGGACCGGTTTTCCCGGTAATCCGTATTTGCC (site CACTTCTCTGG)”, the “recombinant UMI read abundance (log10)” value stood at 0.

As to “CACTAGGCATGGACCGGTTTTCCCGGTAATCCGTATTTGGA (site CACTAGGCTTC)”, the “recombinant UMI read abundance (log10)” value worked out at 0.727.

Take “CACTAGGCATGGACCGGTTTTCCCGGTAATCCGTATTTGGA (site CACTCGGCTTC)”: the “recombinant UMI read abundance (log10)” value is 0.0143.

For the sequence “CACTAGGCATGGACCGGTTTTCCCGGTAATCCGTATTTGGA (site CACTGGGCTTC)”, the “recombinant UMI read abundance (log10)” value was determined as 0.0136.

As to “CACTAGGCATGGACCGGTTTTCCCGGTAATCCGTATTTGGA (site CACTTGGCTTC)”, the “recombinant UMI read abundance (log10)” value came to 0.0198.

For “CACTATGCATGGACCGGTTTTCCCGGTAATCCGTATTTGCG (site CACTATGCTCG)”, the “recombinant UMI read abundance (log10)” value was found to be 1.67.

“CACTCCCCATGGACCGGTTTTCCCGGTAATCCGTATTTGAC (site CACTCCCCTGT)”: the “recombinant UMI read abundance (log10)” value came to 1.54.

Consider “CACTCCTCATGGACCGGTTTTCCCGGTAATCCGTATTTGAC (site CACTCCTCTGA)”, for which the “recombinant UMI read abundance (log10)” value stood at 2.16.

For “CACTCCTCATGGACCGGTTTTCCCGGTAATCCGTATTTGAC (site CACTCCTCTGC)”, the “recombinant UMI read abundance (log10)” value was determined as 1.9.

With “CACTCCTCATGGACCGGTTTTCCCGGTAATCCGTATTTGAC (site CACTCCTCTGG)”, the “recombinant UMI read abundance (log10)” value came out at 1.55.

Turning to “CACTCCTCATGGACCGGTTTTCCCGGTAATCCGTATTTGAC (site CACTCCTCTGT)”, the “recombinant UMI read abundance (log10)” value stood at 3.09.

In the case of “CACTCGACATGGACCGGTTTTCCCGGTAATCCGTATTTGGG (site CAATCGACTCC)”, the “recombinant UMI read abundance (log10)” value was found to be 0.0326.

For “CACTCGACATGGACCGGTTTTCCCGGTAATCCGTATTTGGG (site CACTCGACTCC)”, the “recombinant UMI read abundance (log10)” value turned out to be 0.2.

On to “CACTCGACATGGACCGGTTTTCCCGGTAATCCGTATTTGGG (site CAGTCGACTCC)”, for which the “recombinant UMI read abundance (log10)” value worked out at 0.

Regarding “CACTCGACATGGACCGGTTTTCCCGGTAATCCGTATTTGGG (site CATTCGACTCC)”, the “recombinant UMI read abundance (log10)” value is 0.0164.

As for “CACTGCCCATGGACCGGTTTTCCCGGTAATCCGTATTTGTT (site CACAGCCCTAA)”, the “recombinant UMI read abundance (log10)” value worked out at 0.0209.

For the sequence “CACTGCCCATGGACCGGTTTTCCCGGTAATCCGTATTTGTT (site CACCGCCCTAA)”, the “recombinant UMI read abundance (log10)” value was 0.287.

In the case of “CACTGCCCATGGACCGGTTTTCCCGGTAATCCGTATTTGTT (site CACGGCCCTAA)”, the “recombinant UMI read abundance (log10)” value was 0.0106.

Regarding “CACTGCCCATGGACCGGTTTTCCCGGTAATCCGTATTTGTT (site CACTGCCCTAA)”, the “recombinant UMI read abundance (log10)” value came to 0.276.

On to “CACTGCTCATGGACCGGTTTTCCCGGTAATCCGTATTTGAA (site CAATGCTCTTT)”, for which the “recombinant UMI read abundance (log10)” value was determined as 0.0153.

For the sequence “CACTGCTCATGGACCGGTTTTCCCGGTAATCCGTATTTGAA (site CACTGCTCTTT)”, the “recombinant UMI read abundance (log10)” value is 2.09.

As to “CACTGCTCATGGACCGGTTTTCCCGGTAATCCGTATTTGAA (site CAGTGCTCTTT)”, the “recombinant UMI read abundance (log10)” value was determined as 0.00554.

For “CACTGCTCATGGACCGGTTTTCCCGGTAATCCGTATTTGAA (site CATTGCTCTTT)”, the “recombinant UMI read abundance (log10)” value was determined as 0.0128.

For “CACTGGACATGGACCGGTTTTCCCGGTAATCCGTATTTGGT (site CACTGGACTAC)”, the “recombinant UMI read abundance (log10)” value worked out at 1.24.

Turning to “CAGAAAACATGGACCGGTTTTCCCGGTAATCCGTATTTGGG (site CAGAAAACTCC)”, the “recombinant UMI read abundance (log10)” value was 0.991.

As for “CAGACATCATGGACCGGTTTTCCCGGTAATCCGTATTTGCT (site CAGACATCTAG)”, the “recombinant UMI read abundance (log10)” value stood at 2.46.

As for “CAGACATCATGGACCGGTTTTCCCGGTAATCCGTATTTGCT (site CCGACATCTAG)”, the “recombinant UMI read abundance (log10)” value was 1.06.

Turning to “CAGACATCATGGACCGGTTTTCCCGGTAATCCGTATTTGCT (site CGGACATCTAG)”, the “recombinant UMI read abundance (log10)” value is 1.16.

Turning to “CAGACATCATGGACCGGTTTTCCCGGTAATCCGTATTTGCT (site CTGACATCTAG)”, the “recombinant UMI read abundance (log10)” value was determined as 1.42.

Take “CAGACCGCATGGACCGGTTTTCCCGGTAATCCGTATTTGAT (site CAGACCGCTAT)”: the “recombinant UMI read abundance (log10)” value was 2.7.

Turning to “CAGACGCCATGGACCGGTTTTCCCGGTAATCCGTATTTGAC (site CAGACGCCTGT)”, the “recombinant UMI read abundance (log10)” value was 1.91.

For the sequence “CAGACGGCATGGACCGGTTTTCCCGGTAATCCGTATTTGGG (site CAGACGGCTCC)”, the “recombinant UMI read abundance (log10)” value is 0.191.

As to “CAGAGAGCATGGACCGGTTTTCCCGGTAATCCGTATTTGTA (site CAGAGAGCTTA)”, the “recombinant UMI read abundance (log10)” value turned out to be 2.94.

As for “CAGCACGCATGGACCGGTTTTCCCGGTAATCCGTATTTGGT (site CAGCACGCTAC)”, the “recombinant UMI read abundance (log10)” value came out at 1.61.

On to “CAGCCCACATGGACCGGTTTTCCCGGTAATCCGTATTTGAA (site CAGCCCACTTT)”, for which the “recombinant UMI read abundance (log10)” value was found to be 1.15.

Regarding “CAGCTATCATGGACCGGTTTTCCCGGTAATCCGTATTTGTC (site CAGCTATCTGA)”, the “recombinant UMI read abundance (log10)” value is 3.3.

“CAGGAGTCATGGACCGGTTTTCCCGGTAATCCGTATTTGCC (site CAGGAGTCTGG)”: the “recombinant UMI read abundance (log10)” value stood at 3.4.

For “CAGGAGTCATGGACCGGTTTTCCCGGTAATCCGTATTTGCC (site CCGGAGTCTGG)”, the “recombinant UMI read abundance (log10)” value was determined as 0.

On to “CAGGAGTCATGGACCGGTTTTCCCGGTAATCCGTATTTGCC (site CGGGAGTCTGG)”, for which the “recombinant UMI read abundance (log10)” value came out at 0.

For “CAGGAGTCATGGACCGGTTTTCCCGGTAATCCGTATTTGCC (site CTGGAGTCTGG)”, the “recombinant UMI read abundance (log10)” value was found to be 1.73.

For “CAGGCAGCATGGACCGGTTTTCCCGGTAATCCGTATTTGCT (site CAAGCAGCTAG)”, the “recombinant UMI read abundance (log10)” value was found to be 1.66.

Turning to “CAGGCAGCATGGACCGGTTTTCCCGGTAATCCGTATTTGCT (site CACGCAGCTAG)”, the “recombinant UMI read abundance (log10)” value is 0.

As to “CAGGCAGCATGGACCGGTTTTCCCGGTAATCCGTATTTGCT (site CAGGCAGCTAG)”, the “recombinant UMI read abundance (log10)” value stood at 1.92.

Regarding “CAGGCAGCATGGACCGGTTTTCCCGGTAATCCGTATTTGCT (site CATGCAGCTAG)”, the “recombinant UMI read abundance (log10)” value worked out at 0.

Consider “CAGGCGACATGGACCGGTTTTCCCGGTAATCCGTATTTGGG (site CAGACGACTCC)”, for which the “recombinant UMI read abundance (log10)” value is 0.0355.

For “CAGGCGACATGGACCGGTTTTCCCGGTAATCCGTATTTGGG (site CAGCCGACTCC)”, the “recombinant UMI read abundance (log10)” value came out at 0.0323.

Consider “CAGGCGACATGGACCGGTTTTCCCGGTAATCCGTATTTGGG (site CAGGCGACTCC)”, for which the “recombinant UMI read abundance (log10)” value was 0.209.

Take “CAGGCGACATGGACCGGTTTTCCCGGTAATCCGTATTTGGG (site CAGTCGACTCC)”: the “recombinant UMI read abundance (log10)” value turned out to be 0.0086.

Take “CAGGGCACATGGACCGGTTTTCCCGGTAATCCGTATTTGGA (site CAGGGCACTTC)”: the “recombinant UMI read abundance (log10)” value came out at 0.471.

With “CAGGTCGCATGGACCGGTTTTCCCGGTAATCCGTATTTGAT (site CAGGTCGCTAT)”, the “recombinant UMI read abundance (log10)” value worked out at 2.33.

In the case of “CAGTCAACATGGACCGGTTTTCCCGGTAATCCGTATTTGGG (site CAGTCAACTCC)”, the “recombinant UMI read abundance (log10)” value amounted to 0.146.

Consider “CAGTCAACATGGACCGGTTTTCCCGGTAATCCGTATTTGGG (site CAGTCCACTCC)”, for which the “recombinant UMI read abundance (log10)” value turned out to be 0.018.

Regarding “CAGTCAACATGGACCGGTTTTCCCGGTAATCCGTATTTGGG (site CAGTCGACTCC)”, the “recombinant UMI read abundance (log10)” value turned out to be 0.0226.

Take “CAGTCAACATGGACCGGTTTTCCCGGTAATCCGTATTTGGG (site CAGTCTACTCC)”: the “recombinant UMI read abundance (log10)” value amounted to 0.0255.

Consider “CAGTCGACATGGACCGGTTTTCCCGGTAATCCGTATTTGGT (site CAGTCGACTAC)”, for which the “recombinant UMI read abundance (log10)” value is 1.13.

Regarding “CAGTCGACATGGACCGGTTTTCCCGGTAATCCGTATTTGGT (site CAGTCGACTCC)”, the “recombinant UMI read abundance (log10)” value was determined as 0.0077.
